Reference: US7144919B1, “Polyoxyethylene-polyoxypropylene vitamin E and process for preparation thereof” (priority 2000, dated 2006)

Assay: Anti-oxidation activity: peroxide value of linoleic acid
Details: sample 0.5% in linoleic acid, incubator 40° C.
Experimental: The novel POE-POP vitamin E of the present invention was examined for anti-oxidation activity, using linoleic acid. Readily being oxidized, linoleic acid can be used in determining the ability of an antioxidant of interest to inhibit the oxidation of linoleic acid. Used in this test was reagent-grade linoleic acid that comprised linoleic acid 85% and linolenic acid 15%.
POE-POP vitamin E prepared in Example 1, 2 or 3 was added in an amount of 0.5% to linoleic acid while vitamin E, vitamin E acetate, POE (12EO) vitamin E, POE (24 EO)-cholesterol, POE (20 EO) sorbitan monostearate, and POE (12 EO) nonylphenylether were also used as references. These samples were stored in an incubator maintained at 40° C. After two and ten days of incubation, a peroxide value was determined for each sample. In detail, in 1.0 g of each sample was placed in a 250 ml Erlenmeyer flask and dissolved with 10 ml of chloroform. To the solution, 15 ml of glacial acetic acid and 1 ml of saturated potassium iodide solution were added, and a stopper was put in the flask. After being vigorously shaken, the flask was allowed to stand in a dark place for 5 min. Thereafter, the flask was added with 75 ml of distilled water and vigorously shaken. Free iodine was titrated with a 0.01 N sodium thiosulfate solution, using a starch solution as an indicator. The point at which the solution became colorless was regarded as the end point. The peroxide value was calculated as follows:
[formula] wherein, S: Amount of 0.01 N sodium thiosulfate solution consumed by sample (ml) B: Amount of 0.01 N sodium thiosulfate solution consumed in blank test tube (ml) F: Factor of 0.01 N sodium thiosulfate solution

Compound	Peroxide Values (Day 2)	Peroxide Values (Day 10)
Vitamin E	21.6	58.9
CC(=O)Oc1c(C)c(C)c2c(c1C)CCC(C)(CCC[C@H](C)CCC[C@H](C)CCCC(C)C)O2 (stereo partly shown) [Vitamin E acetate]	26.2	122.3
